According to US6689806B1, “Indolinone compounds as kinase inhibitors” (Sugen, Inc., priority 1999, dated 2004):
Read-outs that look alike come from different tables or passages of the source.

How the values were obtained:
A431 = A431 growth; assay type: cell-based; details: Homo sapiens, A-431, A431 cells
PDGFR = PDGFR (Homo sapiens, UniProt P09619); test: Biochemical PDGFR assay (ELISA); design: expressed in transfected cells; host or cells: NIH 3T3; details: read-out: PDGFr biochem IC50
Protocol: This assay measures the in vitro kinase activity of PDGFR using ELISA.
6. PDGFR-β expressing NlH 3T3 cell lysate.
1. Coat Corning 96 well ELISA plates with 0.5 μg 28D4C10 in 100 μL PBS per well, store overnight at 4° C.
5. Dilute lysate in HNTG (10 μg lysate/100 μL HNTG)
(§1) 6. Add 100 μL of diluted lysate to each well. Shake at room temperature for 60 min.
8. Add 80 μL working kinase buffer mix to ELISA plate containing captured PDGFR.
9. Dilute test compound 1:10 in TBS in 96-well polypropylene plates (i.e., 10 μL compound+90 μL TBS).
10. Add 10 μL diluted test compound to ELISA plate.
11. Incubate for 30 minutes while shaking at room temperature.
12. Add 10 μL ATP directly to all wells except negative control well (final well volume should be approximately 100 μL with 20 μM ATP in each well.) Incubate 30 minutes while shaking.
13. After 30 minutes, stop reaction by adding 10 μL of 200 mM EDTA (pH 8.0) to each well.
(§2) 15. Add 100 μL anti-phosphotyrosine (1:3000 dilution in TBST) per well. Incubate 30-45 min. at room temperature, with shaking.
(§3) 17. Add 100 μL Biosource Goat anti-rabbit IgG peroxidase conjugate (1:2000 dilution in TBST) to each well. Incubate 30 min. at room temperature, with shaking.
(§4) 19. Add 100 μL of ABTS/H2O2 solution to each well.
22. Read assay on Dynatech MR7000 ELISA reader: test filter: 410 nM, reference filter: 630 nM.

Her2 [1] = target: T1, Her2 (Homo sapiens, UniProt P04626); test: HER-2 ELISA: EGF receptor-HER2 chimeric receptor assay in whole cells (HER2 kinase); assay type: cell-based; details: NIH3T3 cells with EGFR/HER2 chimeric receptor, phosphotyrosine ELISA
T1 construct: fused on or other part: P00533 (Epidermal growth factor receptor)
T1 sequence (P04626 676-1255 limits assumed): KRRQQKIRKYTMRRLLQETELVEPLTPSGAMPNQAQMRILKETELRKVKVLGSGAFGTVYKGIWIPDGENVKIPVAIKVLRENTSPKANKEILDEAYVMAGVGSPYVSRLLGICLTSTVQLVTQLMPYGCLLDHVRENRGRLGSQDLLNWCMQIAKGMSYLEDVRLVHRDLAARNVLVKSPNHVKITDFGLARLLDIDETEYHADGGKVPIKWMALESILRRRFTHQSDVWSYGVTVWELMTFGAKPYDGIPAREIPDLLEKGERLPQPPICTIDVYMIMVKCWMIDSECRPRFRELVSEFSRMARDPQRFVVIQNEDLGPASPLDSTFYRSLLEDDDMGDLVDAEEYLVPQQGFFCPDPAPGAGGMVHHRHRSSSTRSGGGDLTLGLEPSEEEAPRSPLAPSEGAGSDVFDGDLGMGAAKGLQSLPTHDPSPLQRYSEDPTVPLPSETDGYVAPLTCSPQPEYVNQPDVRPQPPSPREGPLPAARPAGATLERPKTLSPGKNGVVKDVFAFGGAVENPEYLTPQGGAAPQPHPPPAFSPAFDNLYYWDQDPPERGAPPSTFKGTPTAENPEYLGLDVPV
Protocol: Assay 1: EGF Receptor-HER2 Chimeric Receptor Assay In Whole Cells.
HER2 kinase activity in whole EGFR-NIH3T3 cells was measured as described below:
1. An NIH3T3 cell line overexpressing a chimeric receptor containing the EGFR extracellular domain and intracellular HER2 kinase domain can be used for this assay.
3. Resuspend cells in seeding medium (DMEM, 0.5% bovine serum), and count the cells using trypan blue. Viability above 90% is acceptable. Seed cells in DMEM medium (0.5% bovine serum) at a density of 10,000 cells per well, 100 μL per well, in a 96 well microtiter plate. Incubate seeded cells in 5% CO2 at 37° C. for about 40 hours.
1. Check seeded cells for contamination using an inverted microscope. Dilute drug stock (10 mg/mL in DMSO) 1:10 in DMEM medium, then transfer 5 μL to a TBST well for a final drug dilution of 1:200 and a final DMSO concentration of 1%. Control wells receive DMSO alone. Incubate in 5% CO2 at 37° C. for two hours.
2. Prepare EGF ligand: dilute stock EGF in DMEM so that upon transfer of 10 μL dilute EGF (1:12 dilution), 100 nM final concentration is attained.
4. After 120 minutes incubation with drug, add prepared […] ligand to cells, 10 μL per well, to a final concentration of 100 nM. Control wells receive DMEM alone. Incubate, shaking, at room temperature, for 5 minutes.
5. Remove drug, EGF, and DMEM. Wash cells twice with PBS. Transfer HNTG* to cells, 100 μL per well. Place on ice for 5 minutes. Meanwhile, remove blocking buffer from other ELISA plate and wash with TBST as described above.
6. With a pipette tip securely fitted to a micropipettor, scrape cells from plate and homogenize cell material by repeatedly aspirating and dispensing the HNTG* lysis buffer. Transfer lysate to a coated, blocked, and washed ELISA plate. Incubate shaking at room temperature for one hour.
7. Remove lysate and wash 4 times with TBST. Transfer freshly diluted anti-Ptyr antibody to ELISA plate at 100 μL per well. Incubate shaking at room temperature for 30 minutes in the presence of the anti-Ptyr antiserum (1:3000 dilution in TBST).
8. Remove the anti-Ptyr antibody and wash 4 times with TBST. Transfer the freshly diluted TAGO anti-rabbit IgG antibody to the ELISA plate at 100 μL per well. Incubate shaking at room temperature for 30 minutes (anti-rabbit IgG antibody: 1:3000 dilution in TBST).
9. Remove TAGO detection antibody and wash 4 times with TBST. Transfer freshly prepared ABTS/H2O2 solution to ELISA plate, 100 μL per well. Incubate shaking at room temperature for 20 minutes. (ABTS/H2O2 solution: 1.0 μL 30% H2O2 in 10 mL ABTS stock).
10. Stop reaction by adding 50 μL 5N H2SO4 (optional), and determine O.D. at 410 nm.
11. The maximal phosphotyrosine signal is determined by subtracting the value of the negative controls from the positive controls. The percent inhibition of phosphotyrosine content for extract-containing wells is then calculated, after subtraction of the negative controls.

EGFR = EGFR (Homo sapiens, UniProt P00533); test: Biochemical EGFR assay (ELISA); design: A431 cell lysate; endogenous in cells; host or cells: A431; details: read-out: EGFr biochem IC50
EGFR, sequence (P00533 25-1210): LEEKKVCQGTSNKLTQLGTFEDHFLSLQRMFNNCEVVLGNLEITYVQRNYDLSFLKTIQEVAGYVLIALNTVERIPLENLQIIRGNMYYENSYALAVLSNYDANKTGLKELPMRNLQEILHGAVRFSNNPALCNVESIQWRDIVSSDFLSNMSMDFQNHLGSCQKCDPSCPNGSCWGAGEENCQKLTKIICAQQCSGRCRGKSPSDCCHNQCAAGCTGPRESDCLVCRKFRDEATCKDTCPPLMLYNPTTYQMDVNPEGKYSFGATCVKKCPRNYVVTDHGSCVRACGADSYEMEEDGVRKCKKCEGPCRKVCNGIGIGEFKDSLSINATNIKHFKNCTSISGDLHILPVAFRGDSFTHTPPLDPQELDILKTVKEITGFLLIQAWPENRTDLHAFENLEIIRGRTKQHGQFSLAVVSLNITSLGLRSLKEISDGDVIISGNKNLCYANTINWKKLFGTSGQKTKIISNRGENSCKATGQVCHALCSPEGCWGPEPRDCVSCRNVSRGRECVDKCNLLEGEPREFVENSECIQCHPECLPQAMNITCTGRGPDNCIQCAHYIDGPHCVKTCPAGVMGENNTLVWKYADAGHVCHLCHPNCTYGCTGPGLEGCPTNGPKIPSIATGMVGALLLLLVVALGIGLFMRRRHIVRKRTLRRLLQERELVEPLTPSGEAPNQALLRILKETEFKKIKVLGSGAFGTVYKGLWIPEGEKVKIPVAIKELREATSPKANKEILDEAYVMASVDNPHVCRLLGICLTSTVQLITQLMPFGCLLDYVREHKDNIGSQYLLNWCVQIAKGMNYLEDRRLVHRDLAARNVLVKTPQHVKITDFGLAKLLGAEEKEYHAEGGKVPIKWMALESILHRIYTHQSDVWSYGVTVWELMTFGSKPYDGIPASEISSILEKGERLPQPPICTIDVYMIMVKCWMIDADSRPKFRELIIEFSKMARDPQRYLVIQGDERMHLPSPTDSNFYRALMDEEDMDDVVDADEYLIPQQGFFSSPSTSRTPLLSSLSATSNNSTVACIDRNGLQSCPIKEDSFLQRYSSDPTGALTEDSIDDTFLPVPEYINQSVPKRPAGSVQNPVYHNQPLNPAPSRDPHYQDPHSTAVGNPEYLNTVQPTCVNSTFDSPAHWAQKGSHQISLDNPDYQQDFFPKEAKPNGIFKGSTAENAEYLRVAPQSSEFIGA
Protocol: This assay measures the in vitro kinase activity of EGFR using ELISA.
1. Coat Coming 96 well ELISA plates with 0.5 μg SUMOl in 100 μL PBS per well, store overnight at 4° C.
5. Dilute lysate in PBS (7 μg lysate/100 μL PBS).
as §1
8. Add 120 μL TBS to ELISA plate containing captured EGFR.
9. Dilute test compound 1:10 in TBS in 96-well polypropylene plates (ie. 10 μL compound+90 μL TBS).
10. Add 13.5 μL diluted test compound to ELISA plate.
13. After 5 minutes, stop reaction by adding 16.5 μL of 200 mM EDTA (pH 8.0) to each well, shaking continuously. After the EDTA has been added, shake for 1 mm.
as §2, §3, §4
22. Read assay on Dynatech MR7000 ELISA reader. Test Filter: 410 nM Reference Filter: 630 Nm.

SKOV3 = SKOV3 growth; assay type: cell-based; details: Homo sapiens, SK-OV-3, SKOV3 cells
Her2 [2] = target: T1, Her2; test: EGF-induced Her2-driven BrdU incorporation; assay type: cell-based; details: Table 7; 3T3 cells with EGF-R/Her2 chimeric receptor, EGF 2 nM; read-out: BrdU DNA syn. HER2 IC50
Protocol: The cellular/biologic assays described herein measure the amount of DNA made in response to activation of a test kinase, which is a general measure of a proliferative response. The general procedure for this assay is as follows: a compound is introduced to cells expressing the test kinase, either naturally or recombinantly, for some period of time after which, if the test kinase is a receptor, a ligand known to activate the receptor is added. After incubation at least overnight, a DNA labeling reagent such as Bromodeoxy-uridine (BrdU) or 3H-thymidine is added. The amount of labeled DNA is detected with either an anti-BrdU antibody or by measuring radioactivity and is compared to control cells not contacted with a test compound.
EGF-Induced Her2-Driven BrdU Incorporation
(8) 3T3 cell line engineered to express a chimeric receptor having the extra-cellular domain of EGF-R and the intra-cellular domain of Her2.
(1) Cells are seeded at 8000 cells/well in DMEM, 10% CS, 2 mM Gln in a 96-well plate. Cells are incubated overnight at 37° C. in 5% CO2.
(2) After 24 hours, the cells are washed with PBS, and then are serum starved in serum free medium (0% CS DMEM with 0.1% BSA) for 24 hours.
(3) On day 3, ligand (EGF=2 nM, prepared in DMEM with 0.1% BSA) and test compounds are added to the cells simultaneously. The negative control wells receive serum free DMEM with 0.1% BSA only; the positive control cells receive the ligand (EGF) but no test compound. Test compounds are prepared in serum free DMEM with ligand in a 96 well plate, and serially diluted for 7 test concentrations.
(4) After 20 hours of ligand activation, diluted BrdU labeling reagent (1:100 in DMEM, 0.1% BSA) is added and the cells are incubated with BrdU (final concentration=[…]) for 1.5 hours.
(10) The absorbance of the samples are measured at 410 nm (in “dual wavelength” mode with a filter reading at 490 nm, as a reference wavelength) on a Dynatech ELISA plate reader.

[3] = Table 5, in vitro kinase activity
[4] = Table 7, in vitro kinase activity

PDGFR, sequence (P09619 33-1106): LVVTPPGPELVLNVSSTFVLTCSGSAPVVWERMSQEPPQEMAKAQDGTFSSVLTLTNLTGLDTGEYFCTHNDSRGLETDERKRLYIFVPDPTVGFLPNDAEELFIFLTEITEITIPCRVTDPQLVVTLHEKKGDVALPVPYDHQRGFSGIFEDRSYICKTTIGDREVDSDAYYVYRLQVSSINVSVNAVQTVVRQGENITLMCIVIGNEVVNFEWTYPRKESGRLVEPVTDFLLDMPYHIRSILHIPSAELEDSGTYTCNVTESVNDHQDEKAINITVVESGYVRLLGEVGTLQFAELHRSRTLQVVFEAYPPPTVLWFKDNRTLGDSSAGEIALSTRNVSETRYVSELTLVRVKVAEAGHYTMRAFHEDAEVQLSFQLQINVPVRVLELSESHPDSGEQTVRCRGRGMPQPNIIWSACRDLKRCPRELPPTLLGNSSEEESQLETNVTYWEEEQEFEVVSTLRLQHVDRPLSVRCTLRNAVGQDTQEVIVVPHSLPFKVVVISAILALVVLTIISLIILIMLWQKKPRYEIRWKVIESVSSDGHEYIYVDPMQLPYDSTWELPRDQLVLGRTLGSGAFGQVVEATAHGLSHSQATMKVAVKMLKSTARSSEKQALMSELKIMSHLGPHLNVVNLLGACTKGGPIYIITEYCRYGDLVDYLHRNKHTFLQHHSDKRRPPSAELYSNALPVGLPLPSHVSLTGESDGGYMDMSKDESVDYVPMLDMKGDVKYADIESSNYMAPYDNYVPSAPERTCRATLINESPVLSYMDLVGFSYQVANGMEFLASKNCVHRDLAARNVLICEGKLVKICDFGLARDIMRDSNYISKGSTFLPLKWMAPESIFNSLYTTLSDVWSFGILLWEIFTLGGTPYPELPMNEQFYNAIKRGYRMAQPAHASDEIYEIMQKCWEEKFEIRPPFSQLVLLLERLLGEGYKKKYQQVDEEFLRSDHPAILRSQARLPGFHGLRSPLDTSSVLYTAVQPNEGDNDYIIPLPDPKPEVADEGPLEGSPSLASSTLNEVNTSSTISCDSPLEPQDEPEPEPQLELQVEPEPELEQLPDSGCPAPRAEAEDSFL

| IC50 (A431; Table 5) [µM] | IC50 (PDGFR; [3]) [µM] | IC50 (Her2 [1]; Table 5) [µM] | IC50 (EGFR; [3]) [µM] | IC50 (SKOV3; Table 5) [µM] | IC50 (A431; Table 7) [µM] | IC50 (PDGFR; [4]) [µM] | IC50 (Her2 [1]; Table 7) [µM] | IC50 (EGFR; [4]) [µM] | IC50 (SKOV3; Table 7) [µM] | IC50 (Her2 [2]) [µM] | SMILES |
| --- | --- | --- | --- | --- | --- | --- | --- | --- | --- | --- | --- |
| 5.25 | > 100 | > 100 | > 100 | 5.2 | – | – | – | – | – | – | COc1cc(C)c(CC2C(=O)Nc3ccccc32)cc1C(C)C (centres unmarked) [AAI-9, 3-(5-Isopropyl-4-methoxy-2-methylbenzyl)-1,3-dihydroindol-2-one] |
| > 50 | > 100 | > 100 | > 100 | > 50 | – | – | – | – | – | – | O=C1Nc2cccc(CCO)c2C1Cc1ccccc1 (centres unmarked) [AAI-12, 3-Benzyl-4-(2-hydroxyethyl)-1,3-dihydroindol-2-one] |
| – | – | – | – | – | 4.2 | > 100 | 22.7 | > 100 | 9.7 | – | O=C1Nc2cccc(CCO)c2/C1=C/c1ccc2[nH]ccc2c1 [IN-007, 4-(2-Hydroxy-ethyl)-3-(1H-indol-5-ylmethylene)-1,3-dihydro-indol-2-one] |
| – | – | – | – | – | 13.6 | – | > 100 | > 100 | 25.2 | 4.2 | Cc1[nH]c(/C=C2\C(=O)Nc3cccc(CCO)c32)c(C)c1CCCN(C)C [IN-009, 3-[4-(3-Dimethylamino-propyl)-3,5-dimethyl-1H-pyrrol-2-ylmethylene]-4-(2-hydroxy-ethyl)-1,3-dihydro-indol-2-one] |
